Source: patent publication US5373089A, “Oxytocin antagonist” (Northwestern University, priority 1993, dated 1994)
pKd: −log10 of the molar value. Starred links: 1 amine or outer side, 2 acyl side, 3 side chain; linkers in the order of their positions; H or OH if unused. Positions of bridges follow the written chain, without caps; N, C: chain ends. Non-standard residues stand in square brackets, D forms with d. Residues, ends and D or L forms follow the SMILES beside them. X1 = O=C(CC1(S[*:2])CCCCC1)[*:1]

What was measured:
ESTROUS RAT UTERUS = experiment: Oxytocic bioassay (isolated rat uterus, integrated contraction response to oxytocin); format: cell-based; conditions: for Oxytocic Bioassay pA2: virgin rat uterus in natural estrus, Munsick's buffer 0.5 mM Mg++, integrated contraction area
Excerpt: The protocol used for the oxytocin bioassay procedure is derived from procedures described in a paper by Sawyer, et al., Endocrinology, 106:81 (1980), which in turn was based on reports of Munsick, Brit. J. Pharmacol., 3:328 (1960), and Holton, Brit. J. Pharmacol., 3:328 (1948). The assay calculations for the pA2 estimates are described by Schild, British J. Pharmacology, 2:189 (1947). The major difference in the present procedure from those reported by others in the field is that the area under the contraction is integrated where most other techniques calculate the amplitude. Integration provides much more consistent and reliable results although the pA2 estimates are approximately an order of magnitude lower than those reported using amplitude of the contraction as the endpoint.
1. Animals--a 1.5 cm piece of uterus from a virgin rat (Holtzman) in natural estrus is used for the assay.
2. Buffer/Assay Bath--The buffer used is Munsicks. […] The buffer is gassed continuously with 95% oxygen; 5% carbon dioxide giving a pH of 7.4. The temperature of the assay bath is 37° C. A 10 ml assay bath is used that contains a water jacket for maintaining the temperature and inlet and outlet spikets for adding and removing buffer.
3. Polygraph/transducer--The piece of uterine tissue used for the assay is anchored at one end and connected to a Statham Strain Gauge Force Transducer at the other end which in turn is attached to a Grass Polygraph Model 79 for monitoring the contractions.
4. Assay Protocol. (a) The tissue is equilibrated in the assay bath for one hour with washing with new buffer every fifteen minutes. One gram of tension is kept on the tissue at all times.
(b) The tissue is stimulated initially with oxytocin at 10 nM to "acclimate" the tissue and with […] KCl to determine the maximum contractile response.
(d) The tissue is exposed to oxytocin (Calbiochemical, San Diego, Calif.) for one minute and washed out. There is a three minute interval before addition of the next dose of the agonist or antagonist. When the antagonist is tested, it is given five minutes before the agonist. The agonist is given for one minute. All responses are integrated using a 7P10 Grass Integrator. This is the major difference between the present protocol and others in the literature which usually measure amplitude of the contractions as the response. A single concentration of oxytocin, equal to 80% of the maximum response, is used to test the antagonist. […] This is repeated three times for each dose of antagonist for a three point assay.
(e) Calculations for pA2 : The dose-response (DR) ratios are calculated for antagonist and a Schild's Plot is performed by plotting the Log (DR-1) vs. Log of antagonist concentration. The line plotted is calculated by least squares regression analysis. The pA2 is the concentration of antagonist at the point where the regression line crosses the 0 point of the Log (DR-1) ordinate. The pA2 is the negative Log of the concentration of antagonist that will reduce the response to the agonist by one-half.
The protocol used for the oxytocin bioassay procedure is derived from procedures described in a paper by Sawyer, et al., Endocrinology, 106:81 (1980), which in turn was based on reports of Munsick, Brit. J. Pharmacol., 3:328 (1960), and Holton, Brit. J. Pharmacol., 3:328 (1948). The assay calculations for the pA2 estimates are described by Schild, Brit. J. Pharmacol. (1947). The major difference in procedure from those previously reported was the integration of the area under the contraction instead of merely calculating the amplitude. Integration provides more consistent and reliable results, although the pA2 estimates are about an order of magnitude lower than those reported using amplitude of the contraction as the endpoint.
A 1.5 cm piece of uterus from a virgin rat (Holtzman) in natural estrus is used for the assay.
The buffer used is Munsick's. […]

RAT OXYTOCIN RECEPTOR = target: T1, RAT OXYTOCIN RECEPTOR (Rattus norvegicus, UniProt P70536); experiment: Oxytocin receptor assay, pregnant rat uterus (P21) membranes, 3H-OT competition; format: binding
T1 construct: from tissue; host or cells: uterus of day-21 pregnant Holtzman rats, sucrose-gradient membrane fraction
T1 sequence (P70536 1-388): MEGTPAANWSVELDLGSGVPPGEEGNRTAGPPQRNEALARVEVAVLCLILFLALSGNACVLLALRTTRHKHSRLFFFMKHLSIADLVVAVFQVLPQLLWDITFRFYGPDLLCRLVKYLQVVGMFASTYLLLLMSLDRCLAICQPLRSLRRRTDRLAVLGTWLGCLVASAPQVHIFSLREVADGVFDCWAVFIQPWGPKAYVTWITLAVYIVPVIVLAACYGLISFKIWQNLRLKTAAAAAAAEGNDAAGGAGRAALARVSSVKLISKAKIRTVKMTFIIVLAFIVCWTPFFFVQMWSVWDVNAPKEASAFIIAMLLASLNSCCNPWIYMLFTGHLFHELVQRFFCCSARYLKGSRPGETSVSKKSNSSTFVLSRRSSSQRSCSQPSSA
Procedure: Uterine tissue was removed on day 21 of pregnancy (delivery=Days 211/2 to 221/2) from Holtzman rats. The tissue was emptied of its contents, rinsed in ice cold buffer, cut into small pieces and frozen at -70° C. until homogenization.
Oxytocin receptors (OTrs) reside on the cell membrane and are present at high concentrations at the end of pregnancy in uterine tissue. Frozen tissue is homogenized in Tris buffer, the homogenate filtered, and the filtrate centrifuged at 1000 g for 15 minutes at 4° C. The supernatant is centrifuged at 40,000 g for 30 minutes and the pellet containing the cell membranes resuspended in 10% sucrose. Density gradient ultracentrifugation is then performed by placing the 10 % sucrose suspension on top of 35% sucrose and centrifuging for 30 minutes in a swing bucket rotor at 105,000 g. The membranes at the interface of the 10%/35% sucrose are removed and resuspended in Tris buffer containing EDTA for 30 minutes. This procedure removes divalent cation and results in dissociation of any endogenously bound OT to the receptor. This mixture is then centrifuged for 15 minutes at 100,000 g and the pellet containing the membrane OTrs resuspended in Tris, PMSF, Mg^++, buffer by sonication.
The binding assay consist of 0.1 ml of 20,000 cmp of tritium labeled OT (New England Nuclear, […]), 0.1 ml of OT antagonist added at increasing concentration, 0.25 ml of buffer and 0.05 ml of membrane (70-150 ug protein). A nonspecific tube has 100× of cold OTA added to it. The incubation is for 30 minutes at 30 ° C. The membrane is pelleted by centrifugation in ultraclear mini tubes (5×41 mm) for 30 minutes at 105,000 g. The resulting pellet containing the bound ^3 H-OT is dissolved in 0.1N NaOH at 45 ° C. for 30 minutes and this mixture is then placed in liquid scintillation counting fluid and counted for dpms in a scintillation counter.
The data is analyzed by nonlinear curve fitting methods using McPherson's EBDA (J Pharmacol Methods 14:213-228, 1985) and Munson and Rodbard's LIGAND (Anal Biochem 107:220-239, 1980) program for saturation and competition analysis for determining Kds and Kis.

| Molecule | OXYTOCIC BIOASSAY ED50 (ESTROUS RAT UTERUS; estrous rat uterus, Table 3) [nM] | BIOASSAY ED50 (ESTROUS RAT UTERUS; estrous rat uterus, Table 4) [nM] | BIOASSAY (ANTI/OTA) (ESTROUS RAT UTERUS; ratio to ANTAG I, rat oxytocic bioassay) | Oxytocic Bioassay pA2 (ESTROUS RAT UTERUS) | Oxytocic Bioassay pA2 (ESTROUS RAT UTERUS; D-Trp^2,Pen^6,Arg^8 ] oxytocin) | RECEPTOR ASSAY Ka (RAT OXYTOCIN RECEPTOR; pregnant rat uterus (P21), Table 3) | rOTr (OTA/ANTI) (RAT OXYTOCIN RECEPTOR; ratio of binding affinity to ANTAG I, rat oxytocin receptor) | pKd (RAT OXYTOCIN RECEPTOR) |
| --- | --- | --- | --- | --- | --- | --- | --- | --- |
| [(S)Pmp^1,D-Trp^2,Pen^6,Arg^8 ] oxytocin [Compound D] | 1.38 | 1.38 | 22.1 | 8.86 | greater than 8.86 | 24.40 10^+8 M^-1 | 20.0 |  |
| CC[C@H](C)[C@@H]1NC(=O)[C@H](Cc2ccccc2)NC(=O)[C@@H](Cc2c[nH]c3ccccc23)NC(=O)CC2(CCCCC2)SSC[C@@H](C(=O)N2CCC[C@H]2C(=O)N[C@@H](CCCNC(=N)N)C(=O)NCC(N)=O)NC(=O)[C@H](CC(N)=O)NC1=O [Compound B, [Pmp^1,D-Trp^2,Phe^3,Ile^4,Arg^8] oxytocin] ([dW]FINCPRG-NH2; linker N-5 via X1) |  |  |  | 7.51 |  |  |  | 8.06 |
